pEC50: −log10 of the molar value. Structures can show the parent of a compound that is named as a salt.
biological target: human activated kallikrein enzyme (Homo sapiens, UniProt P03952); experiment: Inhibition of human activated plasma kallikrein, fluorogenic PFR-AMC substrate, 500 pM enzyme format; format: biochemical; settings: 500 pM activated kallikrein; 300 μM PFR-AMC; 30 min preincubation; 10 min room temperature; pH 7.5; read-out: Primary Dose Response Assay: Average EC50
Summary of the method: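 500 pM activated kallikrein preincubated 30 min at room temperature with inhibitors in pH 7.5 Tris/EDTA/NaCl buffer with PEG-400 and Triton X-100. Reaction started with 300 μM PFR-AMC, run 10 min at room temperature; AMC fluorescence read at ex 380/em 460 nm.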

human activated kallikrein enzyme, sequence (P03952 391-638 limits assumed): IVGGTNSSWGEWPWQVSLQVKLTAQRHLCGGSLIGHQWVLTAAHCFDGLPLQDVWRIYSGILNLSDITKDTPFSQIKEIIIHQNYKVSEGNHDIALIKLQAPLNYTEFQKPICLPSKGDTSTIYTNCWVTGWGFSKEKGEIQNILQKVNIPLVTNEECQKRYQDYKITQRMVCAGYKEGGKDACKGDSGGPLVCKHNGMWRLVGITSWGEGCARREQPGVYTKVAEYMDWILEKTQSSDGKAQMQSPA
human activated kallikrein enzyme, sequence (P03952 20-390 partner limits assumed): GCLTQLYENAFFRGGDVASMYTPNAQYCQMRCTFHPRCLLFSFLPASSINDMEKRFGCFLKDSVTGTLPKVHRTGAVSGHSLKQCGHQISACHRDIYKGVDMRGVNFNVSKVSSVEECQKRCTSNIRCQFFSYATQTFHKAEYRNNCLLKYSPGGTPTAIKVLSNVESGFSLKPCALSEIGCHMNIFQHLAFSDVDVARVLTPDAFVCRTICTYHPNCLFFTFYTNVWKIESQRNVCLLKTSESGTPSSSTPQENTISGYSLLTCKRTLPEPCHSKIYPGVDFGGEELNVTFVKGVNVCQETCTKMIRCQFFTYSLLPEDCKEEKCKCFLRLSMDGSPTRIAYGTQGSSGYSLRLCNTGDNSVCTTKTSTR

| Structure (SMILES) | pEC50 |
| --- | --- |
| Cc1cc2c(N)nccc2c(C)c1CNC(=O)c1cnn(Cc2ccc(CC(=O)N3C[C@@H]4[C@@H](CF)[C@@H]4C3)cc2)c1 [Example 207, N-((1-amino-5,7-dimethylisoquinolin-6-yl)methyl)-1-(4-(2-((1R,5S,6r)-6-(fluoromethyl)-3-azabicyclo[3.1.0]hexan-3-y1)-2-oxoethyl)benzyl)-1H-pyrazole-4-carboxamide] | 8.00 to 9.00 |
| Cc1cc2c(N)nccc2c(C)c1CNc1cc(NCc2cn3cc(C4CC4)ccc3n2)cnc1C(=O)O [Example 497, 3-(((1-amino-5,7-dimethylisoquinolin-6-yl)methyl)amino)-5-(((6-cyclopropylimidazo[1,2-a]pyridin-2-yl)methyl)amino)picolinic acid] | < 6.00 |
| Cc1cnc2ccc(CNc3cc(NCc4c(C)cc5c(N)nccc5c4C)ncn3)cc2c1 [Example 336, N^4-((1-amino-5,7-dimethylisoquinolin-6-yl)methyl)-N^6-((3-methylquinolin-6-yl)methyl)pyrimidine-4,6-diamine] | > 9.00 |
| COc1ccc2nc(CNc3cc(NCc4c(C)cc5c(N)nccc5c4C)ncn3)ccc2c1 [Example 307, N^4-((1-amino-5,7-dimethylisoquinolin-6-yl)methyl)-N^6-((6-methoxyquinolin-2-yl)methyl)pyrimidine-4,6-diamine] | 7.00 to 8.00 |
| Cc1cc2c(N)nccc2c(C)c1CNc1cc(NCc2ccc(Cc3cscn3)cc2)ncn1 [Example 350, N^4-((1-amino-5,7-dimethylisoquinolin-6-yl)methyl)-N^6-(4-(thiazol-4-ylmethyl)benzyl)pyrimidine-4,6-diamine] | > 9.00 |
| Cc1cc2c(N)nccc2c(C)c1CNc1nccc2cn(Cc3cn4cc(C5CC5)ccc4n3)nc12 [Example 271, 6-(((2-((6-cyclopropylimidazo[1,2-a]pyridin-2-yl)methyl)-2H-pyrazolo[3,4-c]pyridin-7-yl)amino)methyl)-5,7-dimethylisoquinolin-1-amine] | > 9.00 |
| Cc1cc2c(N)nccc2c(C)c1CNc1cc(N(C)Cc2cnc3ccccc3c2)ncn1 [Example 316, N^4-((1-amino-5,7-dimethylisoquinolin-6-yl)methyl)-N^6-methyl-N^6-(quinolin-3-ylmethyl)pyrimidine-4,6-diamine] | 7.00 to 8.00 |
| Cc1cc2c(N)nccc2c(C)c1CNC(=O)c1cnn(Cc2cc3cc(Br)ccc3o2)c1 [Example 50, N-((1-amino-5,7-dimethylisoquinolin-6-yl)methyl)-1-((5-bromobenzofuran-2-yl)methyl)-1H-pyrazole-4-carboxamide] | 8.00 to 9.00 |
| Cc1cc2c(N)nccc2c(C)c1CNc1cc(NCc2cc3ccccc3cn2)ncn1 [Example 315, N^4-((1-amino-5,7-dimethylisoquinolin-6-yl)methyl)-N^6-(isoquinolin-3-ylmethyl)pyrimidine-4,6-diamine] | 8.00 to 9.00 |
| Cc1cc2c(N)nccc2c(C)c1CNc1cc(NCc2ccc(OCc3ccccn3)cc2)ncn1 [Example 349, N^4-((1-amino-5,7-dimethylisoquinolin-6-yl)methyl)-N^6-(4-(pyridin-2-ylmethoxy)benzyl)pyrimidine-4,6-diamine, formic acid salt] | 8.00 to 9.00 |
| Cc1cc2c(N)nccc2cc1CNc1cc(OCc2ccc(Cn3cccn3)cc2)ncn1 [Example 534, 6-(((6-((4-((1H-pyrazol-1-yl)methyl)benzyl)oxy)pyrimidin-4-yl)amino)methyl)-7-methylisoquinolin-1-amine] | 7.00 to 8.00 |
| Cc1ccc2nc(Cn3cc(C(=O)NCc4c(C)cc5c(N(C(=O)OCc6ccccc6)C(=O)OCc6ccccc6)nccc5c4C)cn3)cn2c1 [Example 4, benzyl ((benzyloxy)carbonyl)(5,7-dimethyl-6-((1-((6-methylimidazo[1,2-a]pyridin-2-yl)methyl)-1H-pyrazole-4-carboxamido)methyl)isoquinolin-1-yl)carbamate] | < 6.00 |
| CCN(CC)C(=O)Cc1ccc(Cn2cc(C(=O)NCc3c(C)cc4c(N)nccc4c3C)cn2)cc1 [Example 226, N-((1-amino-5,7-dimethylisoquinolin-6-yl)methyl)-1-(4-(2-(diethylamino)-2-oxoethyl)benzyl)-1H-pyrazole-4-carboxamide] | > 9.00 |
| Cc1cc2c(N)nccc2c(C)c1CNS(=O)(=O)c1cn(Cc2cn3cc(C4CC4)ccc3n2)nn1 [Example 491, N-((1-amino-5,7-dimethylisoquinolin-6-yl)methyl)-1-((6-cyclopropylimidazo[1,2-a]pyridin-2-yl)methyl)-1H-1,2,3-triazole-4-sulfonamide] | 7.00 to 8.00 |
| Cc1cc2c(N)nccc2c(C)c1CNC(=O)c1cnn(Cc2ccc(CC(=O)NCc3ccccc3)cc2)c1 [Example 229, N-((1-amino-5,7-dimethylisoquinolin-6-yl)methyl)-1-(4-(2-(benzylamino)-2-oxoethyl)benzyl)-1H-pyrazole-4-carboxamide] | 7.00 to 8.00 |
| Cc1cc2c(N)nccc2c(C)c1CNc1nccc2cn(Cc3cn4cc(C5CC5)cnc4n3)nc12 [Example 264, 6-(((2-((6-cyclopropylimidazo[1,2-a]pyrimidin-2-yl)methyl)-2H-pyrazolo[3,4-c]pyridin-7-yl)amino)methyl)-5,7-dimethylisoquinolin-1-amine] | > 9.00 |
| Cc1cc2c(N)nccc2c(C)c1CNC(=O)c1cnn(Cc2ccc(Cc3cccn(C)c3=O)cc2)c1 [Example 30, N-((1-amino-5,7-dimethylisoquinolin-6-yl)methyl)-1-(4-((1-methyl-2-oxo-1,2-dihydropyridin-3-yl)methyl)benzyl)-1H-pyrazole-4-carboxamide] | > 9.00 |
| Cc1cc2c(N)nccc2c(C)c1CNC(=O)c1cnn(Cc2nc3ccccc3s2)c1 [Example 76, N-((1-amino-5,7-dimethylisoquinolin-6-yl)methyl)-1-(benzo[d]thiazol-2-ylmethyl)-1H-pyrazole-4-carboxamide] | 7.00 to 8.00 |
| Cc1cc2c(N)nccc2c(C)c1CNc1cc2c(ccn2Cc2ccc3ncccc3c2)cn1 [Example 528, 5,7-dimethyl-6-(((1-(quinolin-6-ylmethyl)-1H-pyrrolo[3,2-c]pyridin-6-yl)amino)methyl)isoquinolin-1-amine] | < 6.00 |
| Cc1cc2c(N)nccc2c(C)c1CNC(=O)c1cnn(Cc2ccc3ccc(Br)cc3n2)c1 [Example 156, N-((1-amino-5,7-dimethylisoquinolin-6-yl)methyl)-1-((7-bromoquinolin-2-yl)methyl)-1H-pyrazole-4-carboxamide] | 8.00 to 9.00 |
| Cc1cc2c(N)nccc2c(C)c1CNc1cc(OCc2ccc(CC(=O)N(C)C)cc2)cnn1 [Example I-465, 2-(4-(((6-(((1-amino-5,7-dimethylisoquinolin-6-yl)methyl)amino)pyridazin-4-yl)oxy)methyl)phenyl)-N,N-dimethylacetamide] | > 9.00 |
| Cc1cc2c(N)nccc2c(C)c1CNC(=O)c1cnn(Cc2cc3ccccc3o2)c1 [Example 82, N-((1-amino-5,7-dimethylisoquinolin-6-yl)methyl)-1-(benzofuran-2-ylmethyl)-1H-pyrazole-4-carboxamide] | 7.00 to 8.00 |
| Cc1cc2c(N)nccc2c(C)c1CNC(=O)c1cnn(Cc2cn3ccc(C4CC4)cc3n2)c1 [Example 100, N-((1-amino-5,7-dimethylisoquinolin-6-yl)methyl)-1-((7-cyclopropylimidazo[1,2-a]pyridin-2-yl)methyl)-1H-pyrazole-4-carboxamide] | > 9.00 |
| COc1nc2ccccc2cc1Cn1cc(C(=O)NCc2c(C)cc3c(N)nccc3c2C)cn1 [Example 67, N-((1-amino-5,7-dimethylisoquinolin-6-yl)methyl)-1-((2-methoxyquinolin-3-yl)methyl)-1H-pyrazole-4-carboxamide] | 8.00 to 9.00 |
| Cc1cc2c(N)nccc2c(C)c1CNC(=O)c1cnn(Cc2cn3c(C)cccc3n2)c1 [Example 105, N-((1-amino-5,7-dimethylisoquinolin-6-yl)methyl)-1-((5-methylimidazo[1,2-a]pyridin-2-yl)methyl)-1H-pyrazole-4-carboxamide] | > 9.00 |
| Cc1cc2c(N)nccc2c(C)c1CNC(=O)c1cnn(Cc2cn3c(Cl)c(Br)ccc3n2)c1 [Example 138, N-((1-amino-5,7-dimethylisoquinolin-6-yl)methyl)-1-((6-bromo-5-chloroimidazo[1,2-a]pyridin-2-yl)methyl)-1H-pyrazole-4-carboxamide] | > 9.00 |
| Cc1cc2c(N)nccc2c(C)c1CNc1cc(OCc2ccc(Cn3cccn3)cc2)ccn1 [Example I-454, 6-(((4-((4-((1H-pyrazol-1-yl)methyl)benzyl)oxy)pyridin-2-yl)amino)methyl)-5,7-dimethylisoquinolin-1-amine] | 8.00 to 9.00 |
| Cc1cc2c(N)nccc2c(C)c1CNC(=O)c1cnn(Cc2ccc(CC(=O)N3CCC3)c(Cl)c2)c1 [Example I-473, N-((1-amino-5,7-dimethylisoquinolin-6-yl)methyl)-1-(4-(2-(azetidin-1-yl)-2-oxoethyl)-3-chlorobenzyl)-1H-pyrazole-4-carboxamide] | > 9.00 |
